{"source": "paper PMC12077799", "about": "“Fragment-based drug discovery for transthyretin kinetic stabilisers using a novel capillary zone electrophoresis method” (PLOS One, 2025)", "key": {"[1]": {"target": "T1, TTR in undiluted normal human reference plasma (Homo sapiens, UniProt P02766)", "T1 construct": "The TTR in plasma was immunoprecipitated by sheep anti-human prealbumin polyclonal antibody; tissue Precision Biologic Inc., Nova Scotia, Canada", "assay": "125I-T4 displacement assay in neat normal human plasma", "assay_type": "binding", "details": "for IC50: neat normal human plasma, 4-parameter logistic fit", "source_text": "The assay was adapted from one described previously. Briefly, test ligand and ^125I-T4 (Perkin Elmer Inc., Waltham, MA) were mixed with undiluted normal human reference plasma (Precision Biologic Inc., Nova Scotia, Canada). The TTR in plasma was immunoprecipitated by sheep anti-human prealbumin polyclonal antibody (The Binding Site Group Ltd., Birmingham, UK). The immunoprecipitate was washed with buffer and their radioactivity measured with a 2470 WIZARD automatic gamma counter (Perkin Elmer Inc., Waltham, MA). […] Percentage of total radioligand binding for samples of different ligand concentration was then calculated as follows: […]\nTo calculate IC50 values, percentage of total radioligand binding at different concentration points were entered in SigmaPlot™ 11.0. Titration curves were done in triplicates with a minimum of 5 data points fitted by 4-Parameter Logistic Function."}, "[2]": {"target": "T2, Human transthyretin (TTR) (Homo sapiens, UniProt P02766)", "T2 construct": "purchased SCIPAC (Sittingbourne, Kent, UK) P171-1", "assay": "Co-crystallisation of TTR-ligand complex, X-ray hit confirmation", "assay_type": "binding", "details": "for Confirmed by X-ray: fragment seen in ligand-omitted difference density at >= 2σ in one or both binding sites, full or partial density", "procedure": "Crystals were grown by vapor diffusion using a published crystallisation cocktail (100 mM HEPES pH 7.5, 200 mM CaCl2, 28% v/v PEG400) at 21 °C [29]. The hanging drop contained 1 μL of crystallisation cocktail, 1 μL of diluted ligand and 1 μL of TTR protein solution (85 μM). […] Crystals were harvested and flash cooled in a N2 cryostream or dipped into liquid ethane without cryoprotectant. Data was collected at Diamond Light Source (Oxon, UK) beamline I24, I04 or I04-1 (Pilatus 6M or ADSC Q315) or the European Synchrotron Radiation Facility (ESRF, Grenoble, France) beamline ID29 (Pilatus 6M-F) or in-house (Bruker X8 Diffractometer with APEXII CCD detector). Crystal unit cell was initially indexed by software MOSFLM [30] and LABELIT [31] within the EDNA [32] automatic data processing workflow. Diffraction image integration was performed by XDS [33] and reflection intensities were scaled by SCALA [34] or by PROTEUM2 if collected in-house. Phases were obtained by molecular replacement method using PHASER [35], 1DVQ from the Protein Data Bank (PDB) was used as the search model. Atomic positions of the initial model were refined by REFMAC5 [36]. Model building and ligand fitting was completed using COOT [37]. Model graphics were generated using CCP4MG [38]. Crystallographic statistics of all structures can be found in S4 Table."}, "[3]": {"target": "T3, Human transthyretin (TTR) thyroxine binding sites (Homo sapiens, UniProt P02766)", "T3 construct": "purchased SCIPAC (Sittingbourne, Kent, UK) P171-1", "assay": "TTR CZE Free Probe Peak Height Restoration (FPPHR) assay, 8-ANS displacement", "details": "for FPPHR % tested at 10 µM: compound 10 µM in Running Buffer; for FPPHR % tested at 10 µM / FPPHR % at 50 μM / FPPHR % at 100 μM: 10% minimum for a binder; for FPPHR % at 50 μM: compound 50 μM in Running Buffer; for FPPHR % at 100 μM: compound 100 μM in Running Buffer; for FPPHR % at 300 μM ± SD (N = 3): fragment 300 μM in Running Buffer, injected 30 μM 8-ANS / 20 μM TTR, hit cut-off 10%; for change of free 8-ANS peak height with compound in the Running Buffer: in words, concentrations (e.g. Tafamidis 10 µM, Diphenylamine 250 μM, Verapamil 300 µM, Acetazolamide 500 µM)", "procedure": "CZE assays development and fragment screening were performed on a Beckman P/ACE MDQ capillary electrophoresis system (Beckman Coulter Inc., Brea, CA) operated by 32 Karat™ software. All capillaries (Polymicro Technologies, Phoenix, AZ) used were internally coated with polyvinyl alcohol and of around 30 cm in length, 75 microns in internal diameter. Capillary temperature was maintained at 20 °C by recirculating fluorinated fluid coolant during electrophoresis. Sample trays and buffer trays temperature were maintained at 4°C and ambient respectively. For every electrophoretic run, the capillary was pressure rinsed and prefilled with electrophoresis buffer also known as background electrolyte (termed as Running Buffer hereafter) before injection. After each electrophoretic run, the capillary was rinsed with Running Buffer and H2O by pressure (20 psi for 1 minute). Three Running Buffers (RB), A: 20 mM Tris pH 7.5, 1 mM KCl, 1.62 mM NaCl; B: 20 mM HEPES pH 7.0, 2 mM CaCl2 and C: 20 mM HEPES pH 7.0, 2 mM CaCl2, 1% DMSO were used. All CE traces were analysed by 32Karat™ Software with a built-in automatic peak integration algorithm.\nControl 1 Inject Buffer (IB) containing 30 μM 8-ANS was prepared by mixing 1 μL of 3 mM 8-ANS DMSO stock with 99 μL of Running Buffer B in a 0.2 mL PCR tube. Control 2 Inject Buffer was prepared by mixing 1μL of 3 mM 8-ANS DMSO stock with 20 μL of 100 μM tetrameric TTR stock in Running Buffer B and 79 μL of Running Buffer B. The final concentrations (f/c) were 8-ANS 30 μM, TTR 20 μM and 1% DMSO v/v.\nThe maximum Free Probe Peak Height (Control 1 Peak Height) was determined by Outlet Injection (see Fig 1) of Control 1 with an injection pressure of 0.5 psi for 5 seconds (equivalent to ≈ 20–30 nL). An identical injection of Control 2 provides the minimum Free Probe Peak Height (Control 2 Peak Height) enabling calculation of % of bound and unbound, i.e., free 8-ANS. To determine the 8-ANS peak height in Control 1 and Control 2, the capillary was prefilled with Buffer C and electrophoresis carried out at 10 kV (Normal Polarity, Fig 1) with UV monitoring at 230 nm. For displacement analysis, ligand DMSO stock was diluted in Buffer B and used to fill the capillary as the Running Buffer. Electrophoresis commenced after injection of Control 2, thus the injected 8-ANS-TTR complex migrates inside a capillary filled with the test ligand. The observed 8-ANS peak height is defined as Sample Peak Height and the displaced 8-ANS can be calculated as:\n\\% of Free Probe Peak Height Restoration= Sample Peak Height−Control 2 Peak Height/Control 1 Peak Height−Control 2 Peak Height"}, "TTR": {"target": "T4, TTR (Homo sapiens, UniProt P02766)", "T4 construct": "purchased SCIPAC (Sittingbourne, Kent, UK) P171-1", "assay": "Isothermal titration calorimetry (ITC)", "assay_type": "binding", "details": "for Kd: 25 °C, PBS pH 7.8, 3% DMSO", "procedure": "All ITC experiments were conducted on an iTC200 calorimeter (GE Healthcare), and the settings were 25 °C, stir at 1000 RPM, 1–2 μL injection spaced with 100–150 seconds, reference power: 6 μcal/sec. Isotherms were fitted using ORIGIN 7 software (OriginLab, MA, USA). To prepare TTR ITC protein solution (5 mL), purified and freeze-dried human TTR was weighted and dissolved in 310 μL of pure water. The reconstituted protein solution was then desalted by spin column (Bio-Rad, Bio-Gel P6) and the eluted volume was transferred to a 15mL falcon tube. The protein solution was further diluted with 10x Phosphate Buffered Saline (PBS, 500 μL), DMSO (150 μL) and water, (f/c: 4.3 mM Na2HPO4, 137 mM NaCl, 2.7 mM KCl, 1.47 mM KH2PO4, 3% DMSO v/v, TTR 19.35–25 μM, pH 7.8). UV A260/280 was measured to obtain the actual protein concentration using a calculated extinction coefficient of 18450 M^-1 cm^-1. To prepare ligand ITC solution (1 mL), 30 μL of ligand stock in DMSO was diluted with 10x PBS (100 μL) and water (f/c: 4.3 mM Na2HPO4, 137 mM NaCl, 2.7 mM KCl, 1.47 mM KH2PO4, 3% DMSO v/v, Ligand 280–600 μM, pH 7.8)."}, "[4]": {"details": "read-out: Mean 125I-T4 IC50 ± SD (N = 3)"}, "[5]": {"details": "N = number of non-hydrogen atoms"}}, "note": "Like-named read-outs stand apart in the source and are kept apart here."}
{"smiles": "Cc1n[nH]c(-c2ccnc3ccccc23)n1", "note": "[Compound 71575026]", "values": [{"measurement": "IC50", "setting": "[1]; [4]", "result": "238 ± 118", "unit": "µM"}, {"measurement": "Confirmed by X-ray", "setting": "[2]", "result": "Yes 9H7N"}, {"measurement": "FPPHR % tested at 10 µM", "setting": "[3]", "result": 17.07, "unit": "% tested at 10 µM"}]}
{"smiles": "c1cc2cc[nH]c2cn1", "note": "[Compound A00010944]", "values": [{"measurement": "FPPHR % at 50 μM", "setting": "[3]", "result": 3.73, "unit": "%"}]}
{"smiles": "c1ccc2[nH]ncc2c1", "note": "[SFL000101]", "values": [{"measurement": "FPPHR % at 100 μM", "setting": "[3]", "result": 12.12, "unit": "%"}]}
{"smiles": "Clc1ccc2c(-c3cc[nH]n3)ccnc2c1", "note": "[Compound 63633004]", "values": [{"measurement": "FPPHR % tested at 10 µM", "setting": "[3]", "result": 22.71, "unit": "% tested at 10 µM"}]}
{"smiles": "N#Cc1c[nH]c2ccccc12", "note": "[SFL000013]", "values": [{"measurement": "Confirmed by X-ray", "setting": "[2]", "result": "Yes 2 Sites, Full, 9H7G"}, {"measurement": "FPPHR % at 50 μM", "setting": "[3]", "result": 18.13, "unit": "%"}, {"measurement": "FPPHR % at 100 μM", "setting": "[3]", "result": 21.53, "unit": "%"}, {"measurement": "FPPHR % at 300 μM ± SD (N = 3)", "setting": "[3]", "result": "23.08 ± 6.08", "unit": "%"}]}
{"smiles": "NS(=O)(=O)c1cc(Cl)cc(Cl)c1", "note": "[SFL000006, 3,5-Dichlorobenzenesulphonamide]", "values": [{"measurement": "125I-T4 displacement at maximal concentration", "setting": "[1]; 14.3mM, no plateau reached", "result": "≈ 60%"}, {"measurement": "IC50", "setting": "[1]", "result": "8880 ± 3670", "unit": "µM"}, {"measurement": "Confirmed by X-ray", "setting": "[2]", "result": "Yes 1 Site, Partial, 9H7A"}, {"measurement": "ligand electron density, binding sites occupied in co-crystal structure", "setting": "[2]; in words", "result": "only observed in one site"}, {"measurement": "FPPHR % at 300 μM ± SD (N = 3)", "setting": "[3]", "result": "12.18 ± 6.63 (N = 4) %"}]}
{"smiles": "c1cncc(-c2nc3ccccc3[nH]2)c1", "note": "[SFL001465]", "values": [{"measurement": "FPPHR % at 100 μM", "setting": "[3]", "result": 6.22, "unit": "%"}]}
{"smiles": "N#Cc1ncnc2nc[nH]c12", "note": "[SFL001640]", "values": [{"measurement": "FPPHR % at 100 μM", "setting": "[3]", "result": 4.78, "unit": "%"}]}
{"smiles": "c1ccc(-c2cn[nH]c2)cc1", "note": "[Compound Z1013760930]", "values": [{"measurement": "FPPHR % at 50 μM", "setting": "[3]", "result": 14.93, "unit": "%"}]}
{"smiles": "c1ccc(Nc2ccccc2)cc1", "note": "[Diphenylamine, reference compound]", "values": [{"measurement": "change of free 8-ANS peak height with compound in the Running Buffer", "setting": "[3]", "result": "significant free 8-ANS peak height increase"}]}
{"smiles": "c1ccc2nc(-c3cn[nH]c3)ccc2c1", "note": "[SFL001536]", "values": [{"measurement": "FPPHR % at 100 μM", "setting": "[3]", "result": 18.42, "unit": "%"}]}
{"smiles": "c1cnc2[nH]ccc2c1", "note": "[Compound 242506]", "values": [{"measurement": "FPPHR % at 50 μM", "setting": "[3]", "result": 7.85, "unit": "%"}]}
{"smiles": "N[C@@H](Cc1cc(I)c(Oc2cc(I)c(O)c(I)c2)c(I)c1)C(=O)O", "note": "[Thyroxine T4, reference compound]", "values": [{"measurement": "change of free 8-ANS peak height with compound in the Running Buffer", "setting": "[3]", "result": "significant free 8-ANS peak height increase"}]}
{"smiles": "Cc1[nH]ncc1-c1ccccc1", "note": "[Compound 12T-0222]", "values": [{"measurement": "FPPHR % at 50 μM", "setting": "[3]", "result": 25.63, "unit": "%"}]}
{"smiles": "c1ccc2c(-c3nnc4cnccn34)ccnc2c1", "note": "[Compound 86471824]", "values": [{"measurement": "FPPHR % tested at 10 µM", "setting": "[3]", "result": 10.85, "unit": "% tested at 10 µM"}]}
{"smiles": "Cc1n[nH]c(Cl)c1-c1cccc2cccnc12", "note": "[SEL101928]", "values": [{"measurement": "Kd", "setting": "TTR; read-out: ITC Kd1 ± SD (N = 3)", "result": 49.7, "unit": "nM"}, {"measurement": "Kd", "setting": "TTR; read-out: ITC Kd2 ± SD (N = 3)", "result": 331, "unit": "nM"}, {"measurement": "Kd1 LE (Ligand Efficiency, ΔG/N)", "setting": "TTR; [5]", "result": 0.59, "unit": "kcal/mol"}, {"measurement": "Kd2 LE (Ligand Efficiency, ΔG/N)", "setting": "TTR; [5]", "result": 0.52, "unit": "kcal/mol"}, {"measurement": "IC50", "setting": "[1]; [4]", "result": "20.4 ± 4.13", "unit": "µM"}]}
{"smiles": "Nc1ccccc1S(N)(=O)=O", "note": "[2-Aminobenzenesulphonamide, reference compound]", "values": [{"measurement": "change of free 8-ANS peak height with compound in the Running Buffer", "setting": "[3]", "result": "changed minimally"}]}
